In patent publication US20210244057A1, “SWEETENER POWDER COMPOSITION AND PREPARATION METHOD THEREFOR” (SAMYANG CORPORATION, priority 2018, published 2021):

Key:
[1] = Sensory evaluation of sweetener powder by 15 panelists; type: in vivo; conditions: score on a scale of 5 points, 10% Brix solution
Description: For the sensory evaluation, the powders prepared in Examples 5 and 6 were used as an experimental group, and sugar was used as a control group. Each sample was dissolved to a concentration of 10% Brix and prepared to become the same temperature. 10 ml of each sample was collected and provided. It was expressed as a three-digit number randomly extracted using a random number table. The sample presentation order was always randomly determined, and a lukewarm water that could rinse the mouth was provided together to inspectors. The sensory laboratory was maintained at a constant temperature (25±1° C.) and no odor.
The sensory inspectors selected 15 panelists who have a high level of understanding of sensory tests and have experience in sensory tests. Training was conducted three times a week for one month, and it took an average of 30 minutes for each training session. As for the content and method of evaluation, the score was evaluated on a scale of 5 points for the intensity of sweet taste, persistence of sweet taste, body taste, and bitter taste of the control group and the experimental group. The criteria of sweet taste intensity was compared with the standard sample sugar 10% solution as 4.5 points. The closer to 1 point, the lighter the body taste, and the closer to 5 points, the heavier the taste was.

[2] = Glass transition temperature (Tg) by differential scanning calorimetry (DSC), ASTM D3418; type: physicochemical; conditions: raw material: crystalline allulose in powder state
Description: In order to measure the glass transition temperature value (Tg) of the powder product obtained in Examples 1 to 4, and Example 6, differential scanning calorimetry (DSC) analysis was performed according to the method of ASTM D3418, and the specific DSC analysis conditions are as follows.
Equipment name: DSC[differential scanning calorimetry]
Manufacturer: Perkin Elmer
Method: 30 to 250° C., 10° C./min temperature rise, N2 gas purge
The liquid product of Comparative Example 1 was not spray-dried, and measured by the glass transition temperature of the powder obtained by freeze-drying the liquid product. Allulose was measured by the glass transition temperature of crystalline allulose, Reference Example 2 was measured by the glass transition temperature of commercially available indigestible maltodextrin (Samyang Corporation, indigestible maltodextrin, DE 14.9, dietary fiber content 85%), and Reference Example 3 and Reference Example 4 were measured by pulverizing commercially available maltodextrin (Samyang Corporation., Genedex) and commercially available starch syrup (Samyang Corporation, low-intensity starch syrup) at the glass transition temperature.

OC[C@H]1O[C@@](CO)(O[C@H]2O[C@H](CO)[C@@H](O)[C@H](O)[C@H]2O)[C@@H](O)[C@@H]1O [Control group, sugar]
Body taste ([1]; 1 = lighter, 5 = heavier): 3.3 | Bitter residual taste [1]: 2.2 | Sweet taste persistence [1]: 3.2 | Sweet taste ([1]; sugar 10% solution standard = 4.5 points): 4.3

O=C(CO)C(O)C(O)C(O)CO (centres unmarked) [Crystalline allulose, allulose]
Tg [2]: −5.5 °C
